According to patent US7648976B2, “17-allylamino-17-demethoxygeldanamycin polymorphs and formulations” (Bristol-Myers Squibb Company, priority 2005, dated 2010):
“Also recorded” adds a separate entry of the source.

Tests used:
[1] = Effect of 17-AAG starting polymorph on formulation properties; type: physicochemical; details: non-sterile formulation made by procedure of Example 7 from the named polymorph
Method: Particle size distribution was determined by dynamic light scattering with a Nanotract 250 particle size analyzer (Microtrac Inc., Montgomeryville, Pa.). The Nanotrac 250 settings were configured for measuring the PSD (volume distribution) of “Irregular” Shaped particles of “Absorbing” Transparency in a fluid with characteristics of water (Refractive Index: 1.333, Viscosity at 20° C.: […], Viscosity at 30° C.: 1.002 cP). A background signal was measured using 5% Dextrose for Injection (D5W). Then, the nanoparticle formulation was diluted 10 to 20-fold into D5W and mixed well. The PSD of the diluted sample was measured as the average of five replicate 5-minute analyses and reported in histogram format as a function of particle size. While the PSD reflects the range and frequency of particle sizes, other characteristics of the PSD were used for quantitation. The D50 is the volume percentile corresponding to the particle size larger than 50% of the total particle volume (i.e. the median particle size). The D90 is the volume percentile corresponding to the particle size larger than 90% of the total particle volume and is a measure of the largest particles in the dispersion. The particle size distribution measured by dynamic light scattering techniques was supplemented with SEM images, acquired by techniques established in the art. The particle sizes determined via the SEM images were in general agreement with those determined by light scattering.
17-AAG (purified Polymorph C, 1.25 g) was mixed with WFI (3.62 g) and a solution of polysorbate 80 (2.5 g of a 10 weight % solution in WFI), an aqueous suspension of soybean phosphatidylcholine (0.63 g of a 10 weight % suspension in WFI), and a solution of sucrose (10 g of a 25 weight % solution in WFI). The mixture was loaded into the reservoir of a Microfluidics Model 110S microfluidizer containing 7 g WFI set up as described in the previous example and processed under the same conditions. This procedure yielded a formulation having a 17-AAG concentration of approximately 50 mg/mL in an aqueous medium having approximately 1.0 weight % polysorbate 80, 0.25 weight % soy phosphatidylcholine, and 10 weight % sucrose, with a 17-AAG particle size distribution of below 1 micron with median particle size of 300 nm volume distribution.
Non-sterile formulations of 17-AAG were made with other polymorphs using the procedure of Example 7 and compared against formulations made with purified Polymorph C.

[2] = Polymorph stability to heat and humidity (VT-XRPD, DSC); type: physicochemical; details: for polymorph conversion upon heating: VT-XRPD and/or DSC
Description: 17-AAG is polymorphic and exists in multiple forms, many of which are solvates. We have generated many polymorphs using a variety of solvents and crystallization conditions. The polymorphs were characterized by techniques such as XRPD, DSC, infrared spectroscopy, gravimetric vapor sorption (GVS), ^1H-NMR, polarized light microscopy (PLM), and thermogravimetric analysis (TGA). We grouped the polymorphs according to similarities in XRPD data, with summary descriptions provided below. Polymorphs that are solvated are referred to by group and solvate names, as in “Polymorph A (DMF solvate)” or “the DMF solvate of Polymorph A”. • Group A The N,N-dimethylformamide (DMF), ethyl acetate (EtOAc), and methyl isobutyl ketone (MIBK) solvates of Polymorph A all have XRPD peaks at about 5.6, 7.0, 9.2, 11.2, 16.4, and 17.9 degrees 2θ (the first four being its lowest angle peaks). […] It has characteristic XRPD peaks at about 6.4, 8.3, 9.6, 13.3, 14.9, 15.7, 19.1, and 20.8 degrees 2θ. […] Typically, this polymorph group is prepared using high boiling solvents. After melting, these polymorphs exist in a molten state until decomposition at about 220° C.

Q: With `C=CCNC1=C2C[C@@H](C)C[C@H](OC)[C@H](O)[C@@H](C)/C=C(\C)[C@H](OC(N)=O)[C@@H](OC)/C=C\C=C(/C)C(=O)NC(=CC1=O)C2=O` [Amorphous, 17-allylamino-17-demethoxygeldanamycin] as the molecule, how does the Consistency ([1]; listed as Amorphous (1st run)) read?
A: Paste-like

Q: What about the Remarks ([1]; listed as Amorphous (1st run)) of the same molecule?
A: Does not form stable

Q: What about the Consistency ([1]; listed as Amorphous (2nd run)) of the same molecule?
A: Paste-like

Q: What about the Remarks ([1]; listed as Amorphous (2nd run)) of the same molecule?
A: Does not form stable

Q: With `C=CCNC1=C2C[C@@H](C)C[C@H](OC)[C@H](O)[C@@H](C)/C=C(\C)[C@H](OC(N)=O)[C@@H](OC)/C=C\C=C(/C)C(=O)NC(=CC1=O)C2=O` [Polymorph A, 17-allylamino-17-demethoxygeldanamycin] as the molecule, how does the “polymorph conversion upon heating” value [2] read?
A: converted to the more stable Polymorph C

Q: Which results are given for `C=CCNC1=C2C[C@@H](C)C[C@H](OC)[C@H](O)[C@@H](C)/C=C(\C)[C@H](OC(N)=O)[C@@H](OC)/C=C\C=C(/C)C(=O)NC(=CC1=O)C2=O` [Polymorph B, 17-allylamino-17-demethoxygeldanamycin]?
A: Consistency ([1]; listed as B (1st run)): Highly viscous; D50 ([1]; listed as B (1st run)): 1.8 μm; Consistency ([1]; listed as B (2nd run)): Highly viscous; D50 ([1]; listed as B (2nd run)): 2.0 μm; polymorph conversion upon heating [2]: converted to Polymorph C

Q: For `C=CCNC1=C2C[C@@H](C)C[C@H](OC)[C@H](O)[C@@H](C)/C=C(\C)[C@H](OC(N)=O)[C@@H](OC)/C=C\C=C(/C)C(=O)NC(=CC1=O)C2=O` [Polymorph C, 17-allylamino-17-demethoxygeldanamycin], which Consistency [1] is on record?
A: Water-like

Q: And the D50 [1]?
A: 0.28 μm

Q: And the Remarks [1]?
A: Stable nanoparticle

Q: What about the “polymorph conversion upon heating” value [2] of the same molecule?
A: does not convert to any other polymorph upon heating

Q: And the “relative stability among 17-AAG polymorphs” value ([2]; moisture/humidity and heat)?
A: the most stable to moisture and heat; also recorded: the most stable to heat and humidity

Q: For `C=CCNC1=C2C[C@@H](C)C[C@H](OC)[C@H](O)[C@@H](C)/C=C(\C)[C@H](OC(N)=O)[C@@H](OC)/C=C\C=C(/C)C(=O)NC(=CC1=O)C2=O` [Polymorph D (dichloromethane solvate), 17-allylamino-17-demethoxygeldanamycin], which “polymorph conversion upon heating” value [2] is on record?
A: converts to Polymorph C

Q: For `C=CCNC1=C2C[C@@H](C)C[C@H](OC)[C@H](O)[C@@H](C)/C=C(\C)[C@H](OC(N)=O)[C@@H](OC)/C=C\C=C(/C)C(=O)NC(=CC1=O)C2=O` [Polymorph E, 17-allylamino-17-demethoxygeldanamycin], which “polymorph conversion under humidity” value ([2]; 40° C. and 70% relative humidity (RH)) is on record?
A: conversion to Polymorph C is observed

Q: For `C=CCNC1=C2C[C@@H](C)C[C@H](OC)[C@H](O)[C@@H](C)/C=C(\C)[C@H](OC(N)=O)[C@@H](OC)/C=C\C=C(/C)C(=O)NC(=CC1=O)C2=O` [Polymorph G, 17-allylamino-17-demethoxygeldanamycin], which Consistency [1] is on record?
A: Water-like

Q: What about the D50 [1] of the same molecule?
A: 0.36 μm

Q: What about the “polymorph conversion upon heating” value [2] of the same molecule?
A: Heating converts Polymorph G to Polymorph C
